Among the data in the OligoGym collection are normalised inhibition (eCFP-eYFP dual reporter) values, retold here.

Oligonucleotides are written 5' to 3', each unit as a sugar letter and its base; * is a phosphorothioate linkage, no mark a phosphodiester; rarer units and linkages stand in square brackets, end groups in braces. Plain capitals give the bases only. d = 2'-deoxy (DNA); r = 2'-OH (RNA)
Note: test concentration or dose not given here.

One series deals with NOG. As to the kind of experiment: reporter assay of Huesken 2005. As to conditions: siRNA. Background: A reporter such as luciferase makes a cellular process visible.
As for “sense rArGrUrArArGrCrGrCrUrCrGrUrGrCrUrCrCrGdTdT / antisense rCrGrGrArGrCrArCrGrArGrCrGrCrUrUrArCrUdGdA”, the normalised inhibition (eCFP-eYFP dual reporter) amounted to 51%.
On to “sense rCrUrGrGrCrGrGrArGrCrUrGrGrArCrCrArGrCdTdT / antisense rGrCrUrGrGrUrCrCrArGrCrUrCrCrGrCrCrArGdGdT”, for which the normalised inhibition (eCFP-eYFP dual reporter) came to 58.7%.
Still for that read-out and setting: for “sense rGrArUrCrArArArGrGrGrCrUrArGrArGrUrUrCdTdT / antisense rGrArArCrUrCrUrArGrCrCrCrUrUrUrGrArUrCdTdC” the value was 78.3%.
Turning to “sense rArUrCrUrCrCrArCrArUrCrCrGrCrCrCrGrGrCdTdT / antisense rGrCrCrGrGrGrCrGrGrArUrGrUrGrGrArGrArUdAdG”, the normalised inhibition (eCFP-eYFP dual reporter) is 60.2%.
Same read-out and setting: for “sense rUrGrCrUrGrUrArCrGrCrGrUrGrGrArArCrGrAdTdT / antisense rUrCrGrUrUrCrCrArCrGrCrGrUrArCrArGrCrAdCdG” the value was 85.2%; for “sense rGrUrCrCrArArGrUrCrCrGrUrGrCrArCrCrUrCdTdT / antisense rGrArGrGrUrGrCrArCrGrGrArCrUrUrGrGrArCdGdG”, 55.7%.
Turning to “sense rGrGrCrUrUrCrArUrGrGrCrCrArCrCrUrCrGrCdTdT / antisense rGrCrGrArGrGrUrGrGrCrCrArUrGrArArGrCrCdTdG”, the normalised inhibition (eCFP-eYFP dual reporter) was determined as 64.6%.
As to “sense rGrGrCrGrGrCrCrArGrCrArCrUrArUrCrUrCrCdTdT / antisense rGrGrArGrArUrArGrUrGrCrUrGrGrCrCrGrCrCdGdG”, the normalised inhibition (eCFP-eYFP dual reporter) worked out at 87.4%.
Still for that read-out and setting: for “sense rCrCrUrCrArUrCrGrArArCrArCrCrCrArGrArCdTdT / antisense rGrUrCrUrGrGrGrUrGrUrUrCrGrArUrGrArGrGdTdC” the value was 79.3%; for “sense rCrGrCrArGrArCrArUrUrCrUrGrCrCrCrCrGrUdTdT / antisense rArCrGrGrGrGrCrArGrArArUrGrUrCrUrGrCrGdAdC”, 53%; for “sense rArUrCrCrGrCrCrCrGrGrCrArCrCrCrArGrCrGdTdT / antisense rCrGrCrUrGrGrGrUrGrCrCrGrGrGrCrGrGrArUdGdT”, 42.7%.
As to “sense rUrGrGrUrCrGrCrArGrArCrArUrUrCrUrGrCrCdTdT / antisense rGrGrCrArGrArArUrGrUrCrUrGrCrGrArCrCrAdCdA”, the normalised inhibition (eCFP-eYFP dual reporter) amounted to 40.5%.
With “sense rCrGrCrUrGrCrUrGrCrGrCrUrCrGrCrUrGrCrUdTdT / antisense rArGrCrArGrCrGrArGrCrGrCrArGrCrArGrCrGdTdC”, the normalised inhibition (eCFP-eYFP dual reporter) was determined as 73.4%.
Same read-out and setting: for “sense rGrCrUrGrCrGrCrUrCrGrCrUrGrCrUrCrGrGrGdTdT / antisense rCrCrCrGrArGrCrArGrCrGrArGrCrGrCrArGrCdAdG” the value was 67.1%; for “sense rCrArCrCrUrCrArCrGrGrUrGrCrUrGrCrGrGrUdTdT / antisense rArCrCrGrCrArGrCrArCrCrGrUrGrArGrGrUrGdCdA”, 56.3%.
“sense rGrCrCrCrGrGrCrArCrCrCrArGrCrGrArCrArAdTdT / antisense rUrUrGrUrCrGrCrUrGrGrGrUrGrCrCrGrGrGrCdGdG”: the normalised inhibition (eCFP-eYFP dual reporter) came out at 88.4%.
Consider “sense rArCrArUrUrCrUrGrCrCrCrCrGrUrGrCrUrGrUdTdT / antisense rArCrArGrCrArCrGrGrGrGrCrArGrArArUrGrUdCdT”, for which the normalised inhibition (eCFP-eYFP dual reporter) came out at 60%.
Turning to “sense rArCrCrUrCrArUrCrGrArArCrArCrCrCrArGrAdTdT / antisense rUrCrUrGrGrGrUrGrUrUrCrGrArUrGrArGrGrUdCdC”, the normalised inhibition (eCFP-eYFP dual reporter) was determined as 102%.
On the same count and under the same terms, for “sense rGrGrArArCrGrArCrCrUrGrGrGrCrArGrCrCrGdTdT / antisense rCrGrGrCrUrGrCrCrCrArGrGrUrCrGrUrUrCrCdAdC” the value was 51.5%.
Regarding “sense rGrArArCrGrArGrArCrGrCrUrGrCrUrGrCrGrCdTdT / antisense rGrCrGrCrArGrCrArGrCrGrUrCrUrCrGrUrUrCdAdG”, the normalised inhibition (eCFP-eYFP dual reporter) was 74.1%.
On the same count and under the same terms, for “sense rGrCrUrUrCrArGrUrArArGrCrGrCrUrCrGrUrGdTdT / antisense rCrArCrGrArGrCrGrCrUrUrArCrUrGrArArGrCdAdG” the value was 84.7%.
Take “sense rGrCrUrGrCrUrGrCrGrCrUrCrGrCrUrGrCrUrCdTdT / antisense rGrArGrCrArGrCrGrArGrCrGrCrArGrCrArGrCdGdT”: the normalised inhibition (eCFP-eYFP dual reporter) worked out at 78.8%.
On the same count and under the same terms, for “sense rGrArCrGrCrUrGrCrUrGrCrGrCrUrCrGrCrUrGdTdT / antisense rCrArGrCrGrArGrCrGrCrArGrCrArGrCrGrUrCdTdC” the value was 70.9%; for “sense rGrCrArGrCrUrGrCrUrUrCrArGrUrArArGrCrGdTdT / antisense rCrGrCrUrUrArCrUrGrArArGrCrArGrCrUrGrCdCdC”, 63.1%; for “sense rGrUrGrGrCrUrGrUrGrGrUrCrGrCrArGrArCrAdTdT / antisense rUrGrUrCrUrGrCrGrArCrCrArCrArGrCrCrArCdAdT”, 83.3%.
Consider “sense rArCrGrArCrCrUrGrGrGrCrArGrCrCrGrCrUrUdTdT / antisense rArArGrCrGrGrCrUrGrCrCrCrArGrGrUrCrGrUdTdC”, for which the normalised inhibition (eCFP-eYFP dual reporter) amounted to 51.1%.

Another series has as its target UBE2L6. Description: reporter assay of Huesken 2005. As to conditions: siRNA.
As for “sense rCrCrUrArCrCrCrGrArCrCrArArCrCrUrCrCrCdTdT / antisense rGrGrGrArGrGrUrUrGrGrUrCrGrGrGrUrArGrGdAdG”, the normalised inhibition (eCFP-eYFP dual reporter) turned out to be 55.6%.
The same measure, in the same setting: the figure for “sense rCrCrUrGrCrGrGrArUrGrGrArCrCrUrCrGrCrUdTdT / antisense rArGrCrGrArGrGrUrCrCrArUrCrCrGrCrArGrGdGdG” is 81.8%; for “sense rCrArCrArArCrCrArArGrArUrCrUrArCrCrArCdTdT / antisense rGrUrGrGrUrArGrArUrCrUrUrGrGrUrUrGrUrGdAdA” it is 45.8%; for “sense rArUrCrArGrCrArGrUrGrArGrArArCrUrGrGrAdTdT / antisense rUrCrCrArGrUrUrCrUrCrArCrUrGrCrUrGrArUdGdA” it is 82.9%.
The same measure, in the same setting: the figure for “sense rCrUrGrCrGrGrArArCrCrUrGrUrCrCrArGrCrGdTdT / antisense rCrGrCrUrGrGrArCrArGrGrUrUrCrCrGrCrArGdGdT” is 76.1%; for “sense rCrCrArUrArCrCrUrGrCrGrGrArArCrCrUrGrUdTdT / antisense rArCrArGrGrUrUrCrCrGrCrArGrGrUrArUrGrGdGdG” it is 88.3%; for “sense rArGrUrArUrCrCrGrUrUrCrArArGrCrCrUrCrCdTdT / antisense rGrGrArGrGrCrUrUrGrArArCrGrGrArUrArCrUdCdC” it is 53.7%.
In the case of “sense rGrArGrCrCrCrCrUrGrCrGrGrArUrGrGrArCrCdTdT / antisense rGrGrUrCrCrArUrCrCrGrCrArGrGrGrGrCrUrCdCdC”, the normalised inhibition (eCFP-eYFP dual reporter) amounted to 55.9%.
Turning to “sense rCrUrGrGrArGrGrCrCrCrUrCrArArUrGrUrGrCdTdT / antisense rGrCrArCrArUrUrGrArGrGrGrCrCrUrCrCrArGdGdA”, the normalised inhibition (eCFP-eYFP dual reporter) amounted to 48.2%.
As for “sense rArUrUrCrArCrArArCrCrArArGrArUrCrUrArCdTdT / antisense rGrUrArGrArUrCrUrUrGrGrUrUrGrUrGrArArUdTdT”, the normalised inhibition (eCFP-eYFP dual reporter) was found to be 51%.
Regarding “sense rCrCrCrArUrCrArUrCrArGrCrArGrUrGrArGrAdTdT / antisense rUrCrUrCrArCrUrGrCrUrGrArUrGrArUrGrGrGdCdA”, the normalised inhibition (eCFP-eYFP dual reporter) amounted to 74%.
Turning to “sense rGrUrGrArArUrArGrArCrCrGrArArUrArUrCrAdTdT / antisense rUrGrArUrArUrUrCrGrGrUrCrUrArUrUrCrArCdCdA”, the normalised inhibition (eCFP-eYFP dual reporter) was determined as 89.9%.
For “sense rArCrCrArCrCrCrCrArArCrGrUrGrGrArCrGrAdTdT / antisense rUrCrGrUrCrCrArCrGrUrUrGrGrGrGrUrGrGrUdAdG”, the normalised inhibition (eCFP-eYFP dual reporter) stood at 64.9%.
On the same count and under the same terms, the figure for “sense rCrArGrCrArGrUrGrArGrArArCrUrGrGrArArGdTdT / antisense rCrUrUrCrCrArGrUrUrCrUrCrArCrUrGrCrUrGdAdT” is 74.9%; for “sense rUrCrArArGrCrCrUrCrCrCrArUrGrArUrCrArAdTdT / antisense rUrUrGrArUrCrArUrGrGrGrArGrGrCrUrUrGrAdAdC” it is 86.7%; for “sense rGrCrGrArUrGrArUrGrCrCrArArUrGrUrCrCrUdTdT / antisense rArGrGrArCrArUrUrGrGrCrArUrCrArUrCrGrCdTdG” it is 107%.
The same measure, in the same setting: the figure for “sense rArCrCrUrCrGrCrUrGrArCrCrUrGrCrUrGrArCdTdT / antisense rGrUrCrArGrCrArGrGrUrCrArGrCrGrArGrGrUdCdC” is 58.6%; for “sense rCrGrCrUrCrUrCrCrUrCrCrUrArCrCrCrGrArCdTdT / antisense rGrUrCrGrGrGrUrArGrGrArGrGrArGrArGrCrGdTdG” it is 73.7%; for “sense rCrCrUrGrUrCrCrArGrCrGrArUrGrArUrGrCrCdTdT / antisense rGrGrCrArUrCrArUrCrGrCrUrGrGrArCrArGrGdTdT” it is 77.6%.
Same read-out and setting: the figure for “sense rCrUrCrCrUrArCrCrCrGrArCrCrArArCrCrUrCdTdT / antisense rGrArGrGrUrUrGrGrUrCrGrGrGrUrArGrGrArGdGdA” is 63.5%; for “sense rGrGrArUrGrGrArCrCrUrCrGrCrUrGrArCrCrUdTdT / antisense rArGrGrUrCrArGrCrGrArGrGrUrCrCrArUrCrCdGdC” it is 80.5%.
Regarding “sense rUrCrArUrCrArGrCrArGrUrGrArGrArArCrUrGdTdT / antisense rCrArGrUrUrCrUrCrArCrUrGrCrUrGrArUrGrAdTdG”, the normalised inhibition (eCFP-eYFP dual reporter) stood at 61.3%.
“sense rGrUrCrCrUrGrGrUrGrUrGrGrCrArCrGrCrUrCdTdT / antisense rGrArGrCrGrUrGrCrCrArCrArCrCrArGrGrArCdAdT”: the normalised inhibition (eCFP-eYFP dual reporter) came out at 74.2%.
